{
  "source": "patent US12310986B2",
  "about": "“Compositions and methods for the treatment of cancer cells by induction of cytotoxic oxidative stress” (Board of Regents, The University of Texas System, priority 2018, dated 2025)",
  "key": {"[1]": {"test_system": "HCT116 xenograft tumors", "test": "HCT116 (KRAS mutant) xenograft tumors in nude mice", "type": "in vivo", "conditions": "VC or D-VC 1.5 g/kg, ATO 7 mg/kg; for effect on tumor growth compared to PBS (control) injections: 15 injections; for scarring on tumors (mice with scarring): 5 mice per group; for tumor weight compared to PBS treated tumors: after 15 injections, one way ANOVA", "protocol": "Pictured are the xenograft tumors of each of the 5 mice per treatment condition. Mice were injected intraperitoneally with PBS (control), Vitamin C (1.5 g/kg), D-Vitamin C (1.5 g/kg), ATO 7 mg/kg), ATO (7 mg/kg)+Vitamin C (1.5 g/kg) or ATO (7 mg/kg)+D-Vitamin C (1.5 g/kg). Mice were injected daily for 6 days and after 6th injection mice were rested for one day.\nPictured are the xenograft tumors of each of the 5 mice per treatment condition as described in FIG. 6 after 12 injections (2 weeks of treatment).\nTo avoid glucose fluctuations in blood, the food was withdrawn from mice 2 hrs prior drug injections and food was given back to mice after 2 hrs of the VC or D-VC injection.\n1.5 million human HCT116 (KRAS mutant) cancer cells were injected into nude mice, 5 mice per experimental group. After 10 days, and after when tumors reached at least 0.8 cm in size, mice were injected daily with either PBS, PBS+1.5 g/kg vitamin C, PBS+7 mg/kg ATO. PBS+7 mg/kg ATO+1.5 g/kg vitamin C, PBS+1.5 g/kg D-Vitamin C, or PBS+7 mg/kg ATO+1.5 g/kg D-Vitamin C. The mice were injected daily, 6 times per week, and rested one day per week, for a total of 15 total drug injections. […] Initially, ATO was injected at 3 mg/kg, while vitamin C or D-VC were injected at 1 g/kg. The following day, ATO was used at 7 mg/kg, while vitamin C and D-VC were used at […].\nThe injection scheme was ATO injection/2 hour gap/vitamin C or D-VC injection. […] Further, it is also known that the effect of vitamin C treatment on KRAS mutant cancer cells is glucose dependent, To avoid glucose fluctuations in the blood and enhance the effect of vitamin C and D-VC, the drug injections were performed following withdrawal of the food from mice 2 hours prior ATO injections, and the food was only provided again 2 hours following the vitamin C or D-VC injections."}, "[2]": {"test_system": "HCT116 cancer cells", "test": "Cytotoxicity in colorectal HCT116 cancer cells, 72 hours treatment (cell images)", "type": "cell-based, human", "conditions": "HCT116, 72 hours; VC or D-VC 1 mM, ATO 5 μM; compared to buffer", "protocol": "Colorectal HCT116 cancer cells were treated with the indicated solutions for 72 hours: control (phosphate buffered saline, PBS, was added to the culture medium in 1:1000 dilution), VC 1 mM (Vitamin C was used at 1 mM concentration), D-VC 1 mM (D-Vitamin C was used at 1 mM concentration), ATO 5 μM (Arsenic Trioxide was used at 5 μM concentration) and the combination of VC 1 mM with ATO 5 μM or D-VC 1 mM with ATO 5 μM. The cell images are shown with the labeling indicating cell treatments.\nColorectal HCT116 cancer cells were treated for 72 hours with PBS, a 1 mM Vitamin C (VC) solution, 1 mM D-Vitamin CVC (D-VC also referred as D-ascorbic acid), 5 μM arsenic trioxide (ATO), Vitamin C and ATO (VC/ATO), or D-VC and ATO (D-VC/ATO) (FIG. 1)."}, "[3]": {"test_system": "HCT116 cells", "test": "Reactive oxygen species (ROS) detection by flow cytometry, Mito Sox Red, HCT116 cells", "type": "cell-based, human", "conditions": "VC or D-VC 1 mM, ATO 5 μM", "protocol": "FIG. 4: Detection of reactive oxygen species (ROS) by flow cytometry. HCT116 cells were treated with the indicated compounds as described in the FIG. 1 and analyzed by flow cytometry to detect the presence of reactive oxygen species by Mito Sox Red reagent. Mito Sox Red is a reagent from Invitrogen™ catalog #LSM360084\nFIG. 5: Graphical representation of the presence of reactive oxygen species (ROS) as detected by flow cytometry. The ROS detection data shown in the FIG. 4 is presented as a graph.\nIt was anticipated that the cause of cytotoxic stress and apoptosis was the accumulation of reactive oxygen species (ROS), so HCT116 cells were treated as above and assayed for the presence of ROS by flow cytometry (FIG. 4). […] Treatment with 5 μM ATO increased the cells showing ROS accumulation to 26% (FIGS. 4 and 5)."}, "[4]": {"test_system": "HCT116 cells", "test": "Apoptosis flow cytometric assay, Annexin V FITC, HCT116 cells", "type": "cell-based, human", "conditions": "HCT116, 72 hours; VC or D-VC 1 mM, ATO 5 μM", "protocol": "FIG. 2: Apoptotic flow cytometric analysis of HCT116 cancer following drug treatments. HCT116 cells were treated with the drugs as described in the FIG. 1 and following treatments the cells were stained with Annexin-V FITC and sorted.\nFIG. 3: Graphical representation of apoptosis by flow cytometry data. Apoptotic flow cytometric data shown in the FIG. 2 is presented as a graph."}, "[5]": {"conditions": "after 12 injections (2 weeks of treatment)"}},
  "note": "“Also recorded” adds a separate entry of the source.",
  "data": [
    {"compound": "arsenic trioxide [ATO]", "values": [
      {"measurement": "effect on tumor growth compared to PBS (control) injections", "setting": "[1]", "value": "inhibitory effect on tumor growth"},
      {"measurement": "scarring on tumors (mice with scarring)", "setting": "[1]; [5]", "value": "2/5"},
      {"measurement": "tumor weight compared to PBS treated tumors", "setting": "[1]", "value": "lower compared to the PBS treated tumors, however these differences were not statistically significant"},
      {"measurement": "cytotoxicity", "setting": "[2]", "value": "mild cytotoxic impact"},
      {"measurement": "cells accumulating ROS", "setting": "[3]", "value": 26, "unit": "%"},
      {"measurement": "apoptosis (Annexin V FITC)", "setting": "[4]", "value": "low increase in apoptosis over the buffer control"}
    ]},
    {"compound": "O=C1O[C@H]([C@@H](O)CO)C(O)=C1O", "note": "[VC, L-ascorbic acid]", "values": [
      {"measurement": "effect on tumor growth compared to PBS (control) injections", "setting": "[1]", "value": "inhibitory effect on tumor growth"},
      {"measurement": "tumor weight compared to PBS treated tumors", "setting": "[1]", "value": "lower compared to the PBS treated tumors, however these differences were not statistically significant"},
      {"measurement": "cells accumulating ROS", "setting": "[3]", "value": "about 5%"},
      {"measurement": "apoptosis (Annexin V FITC)", "setting": "[4]", "value": "level of apoptosis similar to the buffer control"}
    ]},
    {"compound": "O=C1O[C@@H]([C@H](O)CO)C(O)=C1O", "note": "[D-VC, D-ascorbic acid]", "values": [
      {"measurement": "effect on tumor growth compared to PBS (control) injections", "setting": "[1]", "value": "inhibitory effect on tumor growth; also recorded: appeared to be more effective alone but its effect was not consistent"},
      {"measurement": "scarring on tumors (mice with scarring)", "setting": "[1]; after 9 injections / within the first week of injections, intraperitoneally", "value": "2/5"},
      {"measurement": "scarring on tumors (mice with scarring)", "setting": "[1]; [5]", "value": "2/5"},
      {"measurement": "tumor weight compared to PBS treated tumors", "setting": "[1]", "value": "lower compared to the PBS treated tumors, however these differences were not statistically significant"},
      {"measurement": "cells accumulating ROS", "setting": "[3]", "value": "about 5%"},
      {"measurement": "apoptosis (Annexin V FITC)", "setting": "[4]", "value": "level of apoptosis similar to the buffer control"}
    ]}
  ]
}
